Non-standard residues stand in square brackets, D forms with d. Residues, ends and D or L forms follow the SMILES beside them. Lys(Me3) = C[N+](C)(C)CCCC[C@H](N)C(=O)O
The compounds below were run against T1, MPP8 CD (chromodomain, residues 55–116) (Homo sapiens, UniProt Q99549) (assay: Isothermal titration calorimetry (ITC) of H3K9 and H3K9-like peptides titrated into MPP8 CD). Settings: 50 mM HEPES pH 7.4, 0.1 M NaCl, 0.5 mM TCEP, 25 °C, 50 μM MPP8 CD in cell, 750 μM peptide in syringe, single-site model.
T1 construct: The MPP8 CD (residues 55–116) was cloned with a tobacco etch virus (TEV) protease cleavage site; His6 (N); TEV protease cleavage site (ENLYFQG) (N); made in house; host or cells: E. coli BL21 (DE3)
T1 sequence (Q99549 55-116): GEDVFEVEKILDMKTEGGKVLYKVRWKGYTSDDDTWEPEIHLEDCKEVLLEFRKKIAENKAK
Assay type: binding
Procedure: H3K9 and H3K9-like peptides, unmethylated or lysine-trimethylated, were chemically synthesized (Bio Basic Inc/NBS Biologicals Ltd). Binding of MPP8 CD to H3K9 and H3K9-like peptides was analyzed in 50 mM HEPES pH 7.4, 0.1 M NaCl, 0.5 mM TCEP at 25 °C (298 K), with an AutoiTC200 calorimeter (MicroCal). The sample cell was loaded with 0.37 ml of 50 μM MPP8 CD and the titrant syringe with 750 μM peptide. 20 serial injections of […] peptide solution were performed at 3 min intervals. The stirring speed was 1,000 rpm and the reference power was maintained at 6.06 µcal s^−1. The net heat absorption or release associated with each injection was calculated by subtracting the heat associated with the injection of peptide solution to buffer. Thermodynamic parameters were extracted from a curve fit to the data to a single-site model with Origin 7.0 (MicroCal).

| Structure (SMILES) | Kd |
| --- | --- |
| CC(C)C[C@H](N)C(=O)N[C@@H](C)C(=O)N[C@H](C(=O)N[C@@H](CCCCN)C(=O)N[C@@H](C)C(=O)N[C@@H](C)C(=O)N[C@@H](CCCNC(=N)N)C(=O)N[C@@H](CCCC[N+](C)(C)C)C(=O)N[C@@H](CO)C(=O)N[C@@H](C)C(=O)N1CCC[C@H]1C(=O)N[C@@H](C)C(=O)N[C@H](C(=O)NCC(=O)NCC(=O)N[C@H](C(=O)N[C@@H](CCCCN)C(=O)O)C(C)C)[C@@H](C)O)[C@@H](C)O [H3.1 20-36 K27me3, reference compound] | > 50000 nM |
| CC[C@H](C)[C@H](NC(=O)CNC(=O)[C@H](Cc1c[nH]cn1)NC(=O)[C@@H](NC(=O)[C@H](CO)NC(=O)[C@H](CCCC[N+](C)(C)C)NC(=O)[C@H](CC(C)C)NC(=O)[C@H](C)NC(=O)[C@H](Cc1ccccc1)NC(=O)CNC(=O)[C@@H](N)CCCNC(=N)N)[C@@H](C)O)C(=O)O [SETDB1 1165-1175 K1170me3] (H-RGFAL[Lys(Me3)]STHGI-OH) | 1550 nM |
| CSCC[C@H](NC(=O)[C@@H](NC(=O)[C@H](CCCC[N+](C)(C)C)NC(=O)[C@H](CCCNC(=N)N)NC(=O)[C@H](C)NC(=O)[C@H](CCCNC(=N)N)NC(=O)[C@H](Cc1c[nH]cn1)NC(=O)[C@@H](NC(=O)[C@@H](N)CCCCN)C(C)C)[C@@H](C)O)C(=O)N[C@@H](CO)C(=O)N[C@@H](CCCCN)C(=O)N1CCC[C@H]1C(=O)O [G9a 179-190 K185me3] (H-KVHRAR[Lys(Me3)]TMSKP-OH) | 1310 nM |
| CSCC[C@H](NC(=O)[C@@H](NC(=O)[C@H](CCCC[N+](C)(C)C)NC(=O)[C@H](CCCNC(=N)N)NC(=O)[C@H](C)NC(=O)[C@H](CCCNC(=N)N)NC(=O)[C@H](Cc1c[nH]cn1)NC(=O)[C@@H](NC(=O)[C@@H](N)CCCCN)C(C)C)[C@@H](C)O)C(=O)N1CCC[C@H]1C(=O)N[C@@H](CCCCN)C(=O)N[C@@H](CO)C(=O)N[C@H](C(=O)O)C(C)C [GLP 199-211 K205me3] (H-KVHRAR[Lys(Me3)]TMPKSV-OH) | 337 ± 64 nM |
| CSCC[C@H](NC(=O)[C@@H](NC(=O)[C@H](CCCC[N+](C)(C)C)NC(=O)[C@H](CCCNC(=N)N)NC(=O)[C@H](C)NC(=O)[C@H](CCCCN)NC(=O)[C@H](Cc1ccccc1)NC(=O)[C@@H](NC(=O)[C@@H](N)CCCCN)C(C)C)[C@@H](C)O)C(=O)N[C@@H](CCCNC(=N)N)C(=O)N[C@H](C(=O)N[C@@H](CO)C(=O)O)C(C)C [ATF7IP 10-21 K16me3] (H-KVFKAR[Lys(Me3)]TMRVS-OH) | 193 ± 31 nM |
| CC[C@H](C)[C@H](NC(=O)CNC(=O)[C@H](Cc1c[nH]cn1)NC(=O)[C@@H](NC(=O)[C@@H](N)CO)[C@@H](C)O)C(=O)N[C@@H](C)C(=O)N[C@H](C(=O)N[C@@H](CCCC[N+](C)(C)C)C(=O)N[C@@H](CO)C(=O)N[C@H](C(=O)N[C@@H](CC(N)=O)C(=O)N[C@@H](CCSC)C(=O)N[C@@H](C)C(=O)N[C@@H](CO)C(=O)O)[C@@H](C)O)[C@@H](C)CC [SETDB1 1171-1184 K1178me3] (H-STHGIAI[Lys(Me3)]STNMAS-OH; N-terminus and C-terminus assumed) | > 50000 nM |
| C[C@H](NC(=O)[C@H](CCCCN)NC(=O)CNC(=O)CNC(=O)[C@@H](NC(=O)[C@H](CO)NC(=O)[C@H](CCCC[N+](C)(C)C)NC(=O)[C@H](CCCNC(=N)N)NC(=O)[C@H](C)NC(=O)[C@@H](NC(=O)[C@H](CCC(N)=O)NC(=O)[C@@H](N)CCCCN)[C@@H](C)O)[C@@H](C)O)C(=O)O [H3.1 4-15 K9me3, reference compound] | 769 ± 65 nM |

Same assay, conditions: Figure 4B, 50 mM HEPES pH 7.4, 0.1 M NaCl, 0.5 mM TCEP, 25 °C, single-site model

| Kd | Structure (SMILES) |
| --- | --- |
| > 80000 nM | CC[C@H](C)[C@H](NC(=O)CNC(=O)[C@H](Cc1c[nH]cn1)NC(=O)[C@@H](NC(=O)[C@@H](N)CO)[C@@H](C)O)C(=O)N[C@@H](C)C(=O)N[C@H](C(=O)N[C@@H](CCCC[N+](C)(C)C)C(=O)N[C@@H](CO)C(=O)N[C@H](C(=O)N[C@@H](CC(N)=O)C(=O)N[C@@H](CCSC)C(=O)N[C@@H](C)C(=O)N[C@@H](CO)C(=O)O)[C@@H](C)O)[C@@H](C)CC [SETDB1 1171-1184 K1178me3] (H-STHGIAI[Lys(Me3)]STNMAS-OH; N-terminus and C-terminus assumed) |
